The values that follow come from ChEMBL document CHEMBL5131421, “Cadinane Sesquiterpenoids and Their Glycosides from Alangium chinense That Inhibit Spontaneous Calcium Oscillations” (J Nat Prod, 2022).

Usually pIC50 stands for the IC50 on a negative log10 scale, so that one unit is a factor of ten.

pIC50: −log10 of the molar value.

Assay [1] can be described thus: Neuroprotective activity in primary neocortical neuron (unknown origin) assessed as inhibition of 4-AP-induced spontaneous calcium channel oscillation amplitude measured after 15 min by Fluo-4AM dye based fluorescence assay. The class given is functional, cell-based.
Assay [2] can be described thus: Neuroprotective activity in primary neocortical neuron (unknown origin) assessed as inhibition of 4-AP-induced spontaneous calcium channel oscillation frequency measured after 15 min by Fluo-4AM dye based fluorescence assay. Type of assay: functional, cell-based.
[3] abbreviates: Primary neocortical neuron, 0.25 h.

Take `Cc1cc2c(cc1O)C(=O)[C@](C)(c1ccc(O)c(O)c1)C=C2C(C)C`: the pIC50 in assay [1] (setting [3]) was 5.10; in assay [2] (setting [3]) it was 5.72.

Take `Cc1cc2c(cc1O)C(=O)[C@@](C)(c1ccc(O)c(O)c1)C=C2C(C)C`: the pIC50 is 5.24 in assay [1] (setting [3]) and 5.59 in assay [2] (setting [3]).

Regarding `Cc1cc2c(cc1O)[C@@](C)(c1ccc(O)c(O)c1)C(=O)C=C2C(C)C`, the pIC50 was 5.13 in assay [1] (setting [3]) and 5.51 in assay [2] (setting [3]).

With `Cc1cc2c(cc1O)[C@](C)(c1ccc(O)c(O)c1)C(=O)C=C2C(C)C`, the pIC50 in assay [1] (setting [3]) was 5.27; in assay [2] (setting [3]) it was 5.69.

Turning to `Cc1cc2c(cc1O)C(=O)C(C)(c1ccc(O)c(O)c1)C=C2C(C)C` (racemic), the pIC50 in assay [1] (setting [3]) is 5.21; in assay [2] (setting [3]), 6.01.

With `Cc1cc2c(cc1O)C(C)(c1ccc(O)c(O)c1)C(=O)C=C2C(C)C` (racemic), the pIC50 in assay [1] (setting [3]) is 5.25; in assay [2] (setting [3]), 5.46.

For `NC1=N[C@H](O)[C@H]2[C@H]3O[C@]4(O)O[C@@H]([C@@H](O)[C@@]2(N1)[C@@H]4O)[C@]3(O)CO` [TETRODOTOXIN], the pIC50 in assay [1] (primary neocortical neuron) was 8.77; in assay [2] (primary neocortical neuron) it was 8.31.
